Test results: patent publication US20250177291A1, “HYPOTONIC GEL-FORMING FORMULATIONS WITH ENHANCED RHEOLOGICAL PROPERTIES” (The Johns Hopkins University, priority 2021, published 2025)

Assay: Rheology: max tack force and adhesion of 16% F127 gels with additives
Assay type: physicochemical
Conditions: 0.2-1% glycerin added to 16% w/v F127, 37° C., vs no additive
Method: An Anton Paar cone and plate rheometer (model MCR 302) with PP25 probe were used to measure the max tack force and the adhesion. The probe was placed in contact with the sample, and then moved at a controlled rate vertically away from the sample to measure the normal force. The peak force on the curve is considered the max tack force, while the adhesion is the area under the force curve. Samples (200 μL) were transferred to the rheometer sample holder using a Drummond Wiretrol 200 μL wire plunger pipette. The samples were equilibrated between the probe and sample holder with a 1 mm gap for 60 s at the specified temperature. A total of 100 points were measured at 60 s intervals with ramp linear mode (initial was set as −0.005 mm/s and the final was set as −0.5 mm/s). If not specified, n=3-6 per each sample group were measured and each sample were prepared individually. The final data was exported from the Antron Parr RheoCompass. The max tack force and the adhesion were calculated with GraphPad Prism 9. For the temperature ramp viscosity experiment, the loading gap was set to 0.3 mm. […] The raw data with temperature (° C.) and viscosity (mPa*s) measurements were exported from the Anton Parr RheoCompass software and analyzed/plotted with GraphPad Prism 9. […]

OCC(O)CO [glycerin]
adhesion of the F127 gels: no measurable effect | max tack force of the F127 gels: no measurable effect
